# Measurements published in US9708326B2, “Inhibitors of bruton's tyrosine kinase” (Pharmacyclics LLC, priority 2013, dated 2017).
# Assays:
# Type in all cases: biochemical
# Details in all cases: one of the methods outlined in Example 11a, 11b and 11c
# EGFR = EGFR (Homo sapiens, UniProt P00533); test: Inhibition of a panel of kinases: EGFR in vitro kinase assay
# BTK = biological target: T1, BTK (Homo sapiens, UniProt Q06187); test: Inhibition of a panel of kinases: BTK in vitro kinase assay
# T1 construct: N-terminal His6-tagged, recombinant, full-length, human BTK; His6 (N); made in house; host or cells: baculovirus / Sf21 insect cells
# Experimental: (§1) Btk kinase activity is determined using a time-resolved fluorescence resonance energy transfer (TR-FRET) methodology. Measurements are performed in a reaction volume of 50 μL using 96-well assay plates. Kinase enzyme, inhibitor, ATP (at the Km for the kinase), and 1 μM peptide substrate (Biotin-AVLESEEELYSSARQ-NH2) are incubated in a reaction buffer composed of 20 mM Tris, 50 mM NaCl, MgCl2 (5-25 mM depending on the kinase), MnCl2 (0-10 mM), 1 mM DTT, 0.1 mM EDTA, 0.01% bovine serum albumin, 0.005% Tween-20, and 10% DMSO at pH 7.4 for one hour. The reaction is quenched by the addition of 1.2 equivalents of EDTA (relative to divalent cation) in 25 μL of 1× Lance buffer (Perkin-Elmer). Streptavidin-APC (Perkin-Elmer) and Eu-labeled p-Tyr100 antibody (Perkin-Elmer) in 1× Lance buffer are added in a 25 μL volume to give final concentrations of 100 nM and 2.5 nM, respectively, and the mixture is allowed to incubate for one hour. The TR-FRET signal is measured on a multimode plate reader with an excitation wavelength (λEx) of 330 nm and detection wavelengths (λEm) of 615 and 665 nm. Activity is determined by the ratio of the fluorescence at 665 nm to that at 615 nm. For each compound, enzyme activity is measured at various concentrations of compound. Negative control reactions are performed in the absence of inhibitor in replicates of six, and two no-enzyme controls are used to determine baseline fluorescence levels Inhibition constants, Ki(app), ware obtained using the program BatchKi (Kuzmic et al. (2000), Anal. Biochem. 286:45-50). IC50s are obtained according to the equation: IC50={Ki(app)/(1+[ATP]/Km^ATP)}+[E]total/2;
# (§2) For all kinases, [ATP]=Km^ATP, [Btk]total=0.5 nM and [Lck]total=6 nM.
# (§3) Kinase activity is measured in vitro using electrophoretic mobility shift assay. The kinase reactions are assembled in a total volume of 25 μL in 384 well plates. The reactions comprise: BTK enzyme (1 nM, N-terminal His6-tagged, recombinant, full-length, human BTK purified from baculovirus Sf21 insect cell system), inhibitor, ATP (16 μM, the apparent Km for the kinase), fluorescently labeled peptide substrate (1 μM, FAM-GEEPLYWSFPAKKK-NH2) in a reaction buffer composed of 100 mM HEPES, pH7.5, 5 mM MgCl2 1 mM DTT, 0.1% bovine serum albumin, 0.01% Triton X-100, and 1% DMSO. The reaction is incubated for one hour and is quenched by the addition of 45 μL of termination buffer (100 mM HEPES, pH7.5, 0.01% Triton X-100, 30 mM EDTA). The terminated reactions are analyzed using 12 channel LabChip® 3000 microfluidic detection instrument (Caliper Life Sciences). The enzymatic phosphorylation of the peptide results in a change in net charge, enabling electrophoretic separation of product from substrate peptide. As substrate and product peptides are separated, two peaks of fluorescence are observed. Change in the relative fluorescence intensity of the substrate and product peaks is the parameter measured, reflecting enzyme activity. In the presence of an inhibitor, the ratio between product and substrate is altered: the signal of the product decreases, while the signal of the substrate increases.
# (§4) Activity in each sample is determined as the product to sum ratio (PSR): P/(S+P), where P is the peak height of the product peptide and S is the peak height of the substrate peptide. For each compound, enzyme activity is measured at various concentrations (12 concentrations of compound spaced by 3× dilution intervals). Negative control samples (0%-inhibition in the absence of inhibitor) and positive control samples (100%-inhibition, in the presence of 20 mM EDTA) are assembled in replicates of four and are used to calculate %-inhibition values for each inhibitor at each concentration. Percent inhibition (Pinh) is determined using following equation: […]
# LCK = LCK (Homo sapiens, UniProt P06239); test: Inhibition of a panel of kinases: LCK in vitro kinase assay
# Experimental: as §1, §2, §3, §4
# Sequence of LCK (P06239 whole entry, species assumed): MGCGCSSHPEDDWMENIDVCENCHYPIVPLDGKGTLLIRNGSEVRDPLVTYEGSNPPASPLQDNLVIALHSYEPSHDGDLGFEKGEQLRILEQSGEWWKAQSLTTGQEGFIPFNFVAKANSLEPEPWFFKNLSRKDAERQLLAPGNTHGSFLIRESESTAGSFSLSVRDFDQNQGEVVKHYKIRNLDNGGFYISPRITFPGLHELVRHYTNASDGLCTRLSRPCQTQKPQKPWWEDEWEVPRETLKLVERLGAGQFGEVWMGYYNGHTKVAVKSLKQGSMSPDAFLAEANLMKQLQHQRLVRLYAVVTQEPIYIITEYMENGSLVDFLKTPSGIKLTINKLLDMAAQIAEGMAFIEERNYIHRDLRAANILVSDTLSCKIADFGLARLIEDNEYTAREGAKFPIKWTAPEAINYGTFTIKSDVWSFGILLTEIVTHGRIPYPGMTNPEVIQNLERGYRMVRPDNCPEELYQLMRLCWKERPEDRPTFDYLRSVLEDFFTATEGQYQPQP
# T1 sequence (Q06187 whole entry): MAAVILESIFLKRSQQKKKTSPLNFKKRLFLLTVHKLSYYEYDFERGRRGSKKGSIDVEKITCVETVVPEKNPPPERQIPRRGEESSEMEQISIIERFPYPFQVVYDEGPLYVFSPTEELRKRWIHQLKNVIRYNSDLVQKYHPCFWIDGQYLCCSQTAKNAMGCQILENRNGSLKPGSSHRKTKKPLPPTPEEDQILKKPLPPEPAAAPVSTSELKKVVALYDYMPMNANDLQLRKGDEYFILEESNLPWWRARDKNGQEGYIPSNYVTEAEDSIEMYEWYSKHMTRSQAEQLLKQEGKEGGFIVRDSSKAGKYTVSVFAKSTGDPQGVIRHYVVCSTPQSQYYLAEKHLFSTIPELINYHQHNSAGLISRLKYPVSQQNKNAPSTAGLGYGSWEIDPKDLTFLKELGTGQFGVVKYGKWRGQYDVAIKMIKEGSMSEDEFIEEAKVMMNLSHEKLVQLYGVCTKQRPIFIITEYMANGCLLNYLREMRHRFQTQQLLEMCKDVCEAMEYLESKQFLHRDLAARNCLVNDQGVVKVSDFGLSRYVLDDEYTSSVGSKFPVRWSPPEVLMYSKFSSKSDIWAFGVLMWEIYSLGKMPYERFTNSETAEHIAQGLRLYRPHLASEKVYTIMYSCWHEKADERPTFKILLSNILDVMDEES
# Sequence of EGFR (P00533 25-1210, species assumed): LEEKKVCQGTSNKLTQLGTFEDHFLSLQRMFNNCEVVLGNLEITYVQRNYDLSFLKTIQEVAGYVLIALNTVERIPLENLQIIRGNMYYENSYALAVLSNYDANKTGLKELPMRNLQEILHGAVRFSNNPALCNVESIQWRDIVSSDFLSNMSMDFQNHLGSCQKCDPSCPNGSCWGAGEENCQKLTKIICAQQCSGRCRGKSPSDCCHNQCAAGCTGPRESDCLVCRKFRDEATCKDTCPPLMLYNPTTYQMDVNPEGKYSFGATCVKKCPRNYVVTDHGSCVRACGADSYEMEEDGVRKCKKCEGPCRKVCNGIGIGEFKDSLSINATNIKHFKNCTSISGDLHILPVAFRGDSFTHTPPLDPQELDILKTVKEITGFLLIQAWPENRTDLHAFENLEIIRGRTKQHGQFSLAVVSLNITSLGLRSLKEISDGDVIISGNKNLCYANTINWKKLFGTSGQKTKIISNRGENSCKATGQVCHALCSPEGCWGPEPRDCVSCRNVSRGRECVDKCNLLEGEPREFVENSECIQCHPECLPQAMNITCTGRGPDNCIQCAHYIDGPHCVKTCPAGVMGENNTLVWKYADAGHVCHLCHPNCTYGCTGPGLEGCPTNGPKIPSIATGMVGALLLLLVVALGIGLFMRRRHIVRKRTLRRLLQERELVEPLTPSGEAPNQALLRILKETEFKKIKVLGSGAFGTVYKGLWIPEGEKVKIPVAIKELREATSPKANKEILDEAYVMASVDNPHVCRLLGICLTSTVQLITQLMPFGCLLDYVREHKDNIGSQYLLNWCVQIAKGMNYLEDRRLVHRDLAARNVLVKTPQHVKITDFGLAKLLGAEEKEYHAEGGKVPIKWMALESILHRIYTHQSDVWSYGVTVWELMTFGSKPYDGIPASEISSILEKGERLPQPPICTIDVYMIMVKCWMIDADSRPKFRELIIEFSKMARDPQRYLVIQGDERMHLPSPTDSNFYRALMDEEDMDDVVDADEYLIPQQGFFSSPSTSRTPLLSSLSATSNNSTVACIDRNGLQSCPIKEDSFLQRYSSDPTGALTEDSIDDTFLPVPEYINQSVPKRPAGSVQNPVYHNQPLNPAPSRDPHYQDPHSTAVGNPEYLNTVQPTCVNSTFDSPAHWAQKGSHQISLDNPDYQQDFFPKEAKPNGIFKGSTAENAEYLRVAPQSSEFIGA
Structure (SMILES),IC50 (EGFR),IC50 (BTK),IC50 (LCK)
"CN(C)C/C=C/C(=O)N1CC(n2c(=O)[nH]c3cnc(Nc4ccc(F)cc4)nc32)C1 [Compound 23, (E)-9-(1-(4-(dimethylamino)but-2-enoyl)azetidin-3-yl)-2-(4-fluorophenylamino)-7H-purin-8(9H)-one]",> 10 µM,100 to 1000 nM,
"CN(C)C/C=C/C(=O)Nc1cccc(-n2c(=O)[nH]c3cnc(Nc4ccc(F)cc4)nc32)c1 [Compound 48, (E)-4-(dimethylamino)-N-(3-(2-(4-fluorophenylamino)-8-oxo-7H-purin-9(8H)-yl)phenyl)but-2-enamide]",1 to 10 µM,< 100 nM,1 to 10 µM
"CN(C)C/C=C/C(=O)N1CCC(n2c(=O)[nH]c3cnc(Nc4ccc(F)cc4)nc32)CC1 [Compound 35, (E)-9-(1-(4-(dimethylamino)but-2-enoyl)piperidin-4-yl)-2-(4-fluorophenylamino)-7H-purin-8(9H)-one]",> 10 µM,100 to 1000 nM,1 to 10 µM
"C=CC(=O)Nc1cccc(-c2n[nH]c3cnc(Nc4ccc(OCCOC)cc4)nc23)c1 [Compound 54, N-(3-(5-(4-(2-methoxyethoxyl)phenylamino)-1H-pyrazolo[4,3-d]pyrimidin-3-yl)phenyl)acrylamide]",1 to 10 µM,< 100 nM,0.1 to 1 µM
"C=CC(=O)N(C)c1cccc(-n2c(=O)[nH]c3cnc(Nc4ccc(OCCOC)cc4)nc32)c1 [Compound 13, N-(3-(2-(4-(2-methoxyethoxyl)phenylamino)-8-oxo-7H-purin-9(8H)-yl)phenyl)-N-methylacrylamide]",1 to 10 µM,< 100 nM,1 to 10 µM
"C=CC(=O)Nc1cccc(-n2c(=O)[nH]c3cnc(Nc4ccc(OCCOC)cc4)nc32)c1 [Compound 43, N-(3-(2-(4-(2-methoxyethoxyl)phenylamino)-8-oxo-7H-purin-9(8H)-yl)phenyl)acrylamide]",1 to 10 µM,< 100 nM,> 10 µM
"COCCOc1ccc(Nc2ncc3[nH]c(=O)n(-c4cccc(NC(=O)/C=C/CN(C)C)c4)c3n2)cc1 [Compound 6, (E)-4-(dimethylamino)-N-(3-(2-(4-(2-methoxyethoxyl)phenylamino)-8-oxo-7H-purin-9(8H)-yl)phenyl)but-2-enamide]",1 to 10 µM,< 100 nM,
"C=CC(=O)Nc1cccc(-n2c(=O)[nH]c3cnc(Nc4ccc(F)cc4)nc32)c1 [Compound 17, N-(3-(2-(4-fluorophenylamino)-8-oxo-7H-purin-9(8H)-yl)phenyl)acrylamide]",0.1 to 1 µM,< 100 nM,> 10 µM
"C=CC(=O)Nc1cccc(-c2c[nH]c3cnc(Nc4ccc(OCCOC)cc4)nc23)c1 [Compound 60, N-(3-(2-(4-(2-methoxyethoxyl)phenylamino)-5H-pyrrolo[3,2-d]pyrimidin-7-yl)phenyl)acrylamide]",1 to 10 µM,100 to 1000 nM,1 to 10 µM
"CN(C)C/C=C/C(=O)N1CCC[C@@H](n2c(=O)[nH]c3cnc(Nc4ccc(F)cc4)nc32)C1 [Compound 29, (R,E)-9-(1-(4-(dimethylamino)but-2-enoyl)piperidin-3-yl)-2-(4-fluorophenylamino)-7H-purin-8(9H)-one]",1 to 10 µM,100 to 1000 nM,1 to 10 µM
